Measured values: US20050239889A1, “In vivo release of endogenous anti-microbial mediators by leukotriene B4 (LTB4) administration” (priority 2004, published 2005)

Columns and labels:
α-Defensins [1] = assay: Plasma α-Defensins (ELISA) after intravenous LTB4 administration to human subjects, Phase I study; assay type: in vivo
Experimental: (§1) Plasma samples were obtained from 19 HIV-uninfected human volunteers taking part in a Phase I clinical study on the safety and tolerability of intravenously (i.v.) administered bolus of LTB4. In brief, 3 individuals received saline (placebo) and 16 (4 subjects/group) were administered LTB4 in doses ranging from 0.05 μg/kg to 50 μg/kg per day for 7 consecutive days. Venous blood was collected twice before injection (-5 and -2 minutes) to establish baseline values. Following the i.v. administration of saline or LTB4, blood samples were drawn at 0.5, 1, 2, 4, 6, and 24 hours post-injection into blood collection tubes, using EDTA as anti-coagulant. Immediately after blood collection, the samples were put on ice until processed. All plasma isolation procedures were carried out at 4° C. Plasma samples were stored at −80° C. until assayed by ELISA for α-Defensins (HyCult Biotechnology bv, The Netherlands) and MIP-β(Amersham/Pharmacia, Baie d'Urfé, Canada).
Healthy volunteers participating in a Phase I clinical study on the safety and tolerability of intravenously administered LTB4, were randomized into 5 groups: placebo (n=3), LTB4 0.05 μg/kg (n=4), LTB4 0.5 μg/kg (n=4), LTB4 5 μg/kg (n=4) and LTB4 50 μg/kg (n=4). LTB4 was administered once daily for 7 consecutive days and plasma samples (0-6 hours post-LTB4 administration) from all 19 volunteers were tested for the presence of α-Defensins using a commercial ELISA kit. The mean ± standard error of α-Defensins releases (ng/ml plasma) for each group are presented in FIG. 1 with statistical analysis performed using the placebos as control group. Healthy individuals received a placebo (3 subjects) or doses of LTB4 ranging form 0.05 μg/kg to 50 μg/kg (n=4 subjects/group). Plasma samples were obtained at various time points before and after LTB4 injections and the α-Defensin levels determined by ELISA. The data shown in FIG. 1 represent the mean ± standard error of α-Defensins (ng/mL plasma) of all subjects within each group. P values were determined by comparing the mean α-Defensin levels of each group that received LTB4 versus the placebo group at the same time points. *p<0.001; **p<0.05. Plasma samples obtained before placebo or LTB4 injections indicate that there were no significant differences in the basal levels of α-Defensins between the groups.

α-Defensins [2] = assay: Plasma α-Defensins (ELISA) after subcutaneous LTB4 administration to monkeys; assay type: in vivo, Macaca fascicularis; details: macaques
Experimental: Two macaques (Macaca fascicularis) were used for the study. For subcutaneous injections, the areas to be injected were first shaved one day before dosing. Volumes of 0.075 mL (monkey IJI) or 0.1 mL (monkey JKN) of LTB4 solution were administered subcutaneously in the arm of the animal to compensate for slight difference between both monkeys. Venous blood samples were collected at various time points with all plasma isolation procedures performed at 4° C. Platelet-free plasma samples were stored at −80° C. until assayed for α-Defensins using a commercial ELISA kit (HyCult Biotechnology bv, The Netherlands). We next studied the change in plasmatic concentration of the antimicrobial peptides α-Defensins in monkeys following subcutaneous (s.c.) administration of LTB4. Monkeys were injected s.c. with 5,5 μg/kg or 50 μg/kg of LTB4 and blood samples were taken at various time points and used for (α-Defensins measurements in the plasma, using a commercial ELISA kit. The results obtained are presented in FIGS. 3A (5,5 μg/kg) and 3B (50 μg/kg). Two macaques (IJI and JKN) were injected subcutaneously with 5,5 μg/kg (A) or 50 μg/kg (B) of LTB4. Blood samples were collected at various time points and α-Defensins levels measured in plasma samples using a commecial ELISA kit. Overall, the data obtained indicate that α-Defensins levels in plasma remain relatively stable up to 15 minutes post-LTB4 administration. α-Defensins levels started to increase by 30 minutes and peaked at two hours post LTB4 administration. […] For monkeys that received 50 μg/kg, (α-Defensins levels remained at their highest up to 4 hours post injection, followed by a gradual decrease. In both sets (5,5 μg/kg and 50 μg/kg), the levels of α-Defensins remained above baseline values up to 6 hours following LTB4 delivery

MIP-1β = assay: Plasma MIP-1β (ELISA) after intravenous LTB4 administration to human subjects, Phase I study; assay type: in vivo; details: i.v.
Experimental: as §1
Considering that soluble anti-HIV factors include β-chemokines and that neutrophils are capable of producing MIP-1β, we measured the levels of this β-chemokine in plasma of individuals that received a placebo or LTB4 (same cohorts as mentioned above). Plasma samples from healthy subjects that received a placebo (n=3) or LTB4 (5 and 50 μg/kg [n=4 subjects/group]) were obtained at various time points before and after LTB4 injections. Data are expressed as mean ± […] of the mean of MIP-1β levels (pg/ml) for all subjects within each group. P values were determined by comparing the mean MIP-1β levels of each group that received LTB4 versus the placebo group at the same time points. *p<0.025. […] Plasma samples from subjects that received the 2 lowest doses of LTB4 were not tested for MIP-1β.

With `CCCCC/C=C\C[C@@H](O)/C=C/C=C/C=C\[C@@H](O)CCCC(=O)O` [LTB4, 5S,12R-dihydroxy-6,8,10,14(Z,E,E,Z)-eicosatetraenoic acid] the “release of α-Defensins in plasma, dose dependence” value (α-Defensins [1]; i.v. bolus once daily for 7 days, 0.05 to 50 μg/kg, versus placebo group) was “triggered dose-dependent release of α-Defensins”, the “increase in plasmatic α-Defensins” value (α-Defensins [1]; i.v., 0.5 μg/kg) was “although not significant, caused a measurable increase in plasmatic α-Defensins” and the “time of maximal effect on plasmatic α-Defensins post-LTB4 administration” value (α-Defensins [1]; i.v., 0.5 μg/kg) was “two”. For the same molecule, the “time of peak α-Defensin levels” value (α-Defensins [1]; i.v., 5 μg/kg and 50 μg/kg) was 2 h, the “time to significant increase of α-Defensin release following LTB4 injections” value (α-Defensins [1]; i.v., 5 μg/kg and 50 μg/kg) was 30 min and the “peak α-Defensin levels over the placebo group” value (α-Defensins [1]; i.v., 5 μg/kg and 50 μg/kg, at 2 hours, p<0.001) was 5-7 fold. For the same molecule, the “time α-Defensin levels remained above the control levels post-LTB4 administration” value (α-Defensins [1]; i.v., 5 μg/kg and 50 μg/kg, p<0.05) was “up to 6 hours”, the “α-Defensins levels 24 hours post-LTB4 administration” value (α-Defensins [1]; i.v., 24 hours) was “back to the pre-injection levels” and the “α-Defensins release in plasma” value (α-Defensins [1]; i.v., lowest dose of LTB4 (0.05 μg/kg)) was “did not significantly enhanced α-Defensins release”. The “time α-Defensins levels remained at their highest post injection” value (α-Defensins [2]; s.c., 50 μg/kg, followed by a gradual decrease) was “up to 4 hours”, the “time of peak α-Defensins levels post LTB4 administration” value (α-Defensins [2]; s.c., 5,5 μg/kg or 50 μg/kg) was “two” and the “time α-Defensins levels in plasma remain relatively stable post-LTB4 administration” value (α-Defensins [2]; s.c., 5,5 μg/kg or 50 μg/kg) was “up to 15 minutes”. The “time α-Defensins levels started to increase” value (α-Defensins [2]; s.c., 5,5 μg/kg or 50 μg/kg) was 30 min, the “course of α-Defensins levels after the peak” value (α-Defensins [2]; s.c., 5,5 μg/kg, experiment ended at hour 6) was “started to drop by the fourth hour and continued to do so up to hour 6” and the “time levels of α-Defensins remained above baseline values following LTB4 delivery” value (α-Defensins [2]; s.c., both 5,5 μg/kg and 50 μg/kg) was “up to 6 hours”. The “start of elevation in plasmatic MIP-1β levels post-LTB4 injection” value (MIP-1β; 5-50 μg/kg) was 1 h, the “time of maximal plasmatic MIP-1β levels post-LTB4 injection” value (MIP-1β; 5-50 μg/kg) was 2 h and the “MIP-1β plasmatic levels at 6 hours post-LTB4 administration” value (MIP-1β; 5-50 μg/kg, 6 hours) was “had returned to original levels”. For the same molecule, the “statistical significance of MIP-1β elevation versus placebo” value (MIP-1β; 5 and 50 μg/kg groups, n=4 per group, p<0.025) was “statistical significance was observed only for those that received the highest dose of LTB4”.
